Reference: PMC7177849, “Gut Microbial Catabolites of Tryptophan Are Ligands and Agonists of the Aryl Hydrocarbon Receptor: A Detailed Characterization” (International Journal of Molecular Sciences, 2020)

Tests used:
[1] = test system: CYP1A1 mRNA; test: CYP1A1 mRNA (qRT-PCR) in primary human hepatocytes; type: cell-based; conditions: three donors, 24 h
Protocol: Figure 4 Effects of MICT on the induction of CYP1A1 mRNA in human hepatic and intestinal cells. Cultured cells were incubated for 24 h with the vehicle (DMSO; 0.1% v/v) and tested MICT in the presence or absence of TCDD (10 nM). RT-PCR determined the level of CYP1A1 mRNA, and the data were normalized per GAPDH mRNA level. […] (A,B) Experiments in three consecutive passages of human colon adenocarcinoma cell line LS180 in the absence (A) and the presence (B) of 10 nM TCDD. The bar graphs show the percentage of maximal induction attained by TCDD and are expressed as the mean ± SD. (C) Experiments in three consecutive passages of wild-type (AhR^+/^+) and AhR-knockout (AhR^−/^−) HT-29 cells. […] (D) Primary human hepatocytes from three different donors (LH79, Hep2201020, and Hep2201021).
Primary human hepatocyte cultures were from two sources: (i) long-term human hepatocytes in monolayer batch Hep2201020 (person) and Hep2201021 (person) were purchased from Biopredic International (Rennes, France); (ii) primary human hepatocytes from multiorgan donor LH79 were prepared at Palacky University Olomouc. Liver tissue was obtained from Faculty Hospital Olomouc, and the tissue acquisition protocol followed the requirements issued by the “Ethical Committee of the Faculty Hospital Olomouc, Czech Republic” and Transplantation law #285/2002 Coll.
Total RNA was isolated using TRI Reagent® (Sigma Aldrich, Prague, Czech Republic). cDNA was synthesized using M-MuLV reverse transcriptase (New England Biolabs, Ipswich, MA, USA). The reverse transcription was performed at 42 °C for 60 min using Random Primers 6 (New England Biolabs, Ipswich, MA, USA) and diluted in a 1:4 ratio by PCR-grade water. The quantitative reverse transcriptase-polymerase chain reaction (qRT-PCR) was performed on the Lightcycler 480 II using the LightCycler ® 480 Probes Master (Roche Diagnostic Corporation, Prague, Czech Republic). The levels of CYP1A1 and GAPDH mRNAs were determined using the Universal Probe Library probes (UPL; Roche Diagnostic Corporation, Prague, Czech Republic) in combination with specific primers, using a protocol described elsewhere. All measurements were performed in triplicates, and the gene expression was normalized to glyceraldehyde-3-phosphate dehydrogenase (GAPDH) as a house-keeping gene. The data were processed using the delta-delta Ct method and expressed as a fold induction over the negative control (DMSO) or as a percentage of the positive control (maximal induction by TCDD).

[2] = target: T1, murine AhR (Mus musculus, UniProt P30561); test: Competitive radio-ligand ([3H]-TCDD) AhR binding assay, cytosols from Hepa1c1c7 cells; conditions: Table 1 summary class
T1 sequence (P30561 10-805): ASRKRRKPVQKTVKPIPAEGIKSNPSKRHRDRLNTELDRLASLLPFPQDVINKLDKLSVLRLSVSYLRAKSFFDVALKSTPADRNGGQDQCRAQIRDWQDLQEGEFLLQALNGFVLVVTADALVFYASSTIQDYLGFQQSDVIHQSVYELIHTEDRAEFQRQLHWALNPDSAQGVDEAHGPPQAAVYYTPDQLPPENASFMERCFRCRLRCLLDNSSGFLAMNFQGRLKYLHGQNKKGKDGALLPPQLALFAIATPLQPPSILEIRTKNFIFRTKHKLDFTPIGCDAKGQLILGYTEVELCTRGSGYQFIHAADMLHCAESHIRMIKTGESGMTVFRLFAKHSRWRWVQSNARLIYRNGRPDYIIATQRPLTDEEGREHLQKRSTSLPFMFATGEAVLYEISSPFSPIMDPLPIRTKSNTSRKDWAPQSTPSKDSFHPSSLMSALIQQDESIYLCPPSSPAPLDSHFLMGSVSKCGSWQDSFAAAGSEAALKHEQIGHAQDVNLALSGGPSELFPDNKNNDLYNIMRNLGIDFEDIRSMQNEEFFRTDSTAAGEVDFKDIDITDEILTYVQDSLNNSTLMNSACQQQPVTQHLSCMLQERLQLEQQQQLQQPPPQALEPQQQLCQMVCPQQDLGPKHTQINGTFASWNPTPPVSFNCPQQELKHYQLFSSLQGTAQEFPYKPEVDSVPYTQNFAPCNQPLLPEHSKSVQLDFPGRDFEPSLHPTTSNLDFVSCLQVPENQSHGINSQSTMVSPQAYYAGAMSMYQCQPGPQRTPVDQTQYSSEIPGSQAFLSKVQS
Protocol: Figure 2 Competitive radio-ligand binding assay. Cytosols from Hepa1c1c7 cells were incubated with vehicle (negative control; 0.1% V/V), FICZ (positive control; 0.01 nM – 10 nM), TCDF (non-specific binding; 200 nM) and increasing doses of MICT in the presence of 2 nM [^3H]-TCDD. The specific binding of [^3H]-TCDD was determined as a difference between total and non-specific (200 nM; TCDF) reactions (value for vehicle DMSO; 0.1% V/V = corresponds to specific binding of [^3H]-TCDD = 100%). At least two independent experiments were performed and the incubations were done in triplicates in each experiment (technical replicates).
Ligand binding assay was performed using cytosolic protein extracts from murine Hepa1c1c7 cells as described. Briefly, aliquots of protein (2 mg/mL) were incubated at the room temperature for two (2) h with 2 nM [^3H]-TCDD in the presence of DMSO (vehicle control), FICZ (positive control), 200 nM TCDF (non-specific binding) or increasing concentration of MICT. After the incubation, the hydroxyapatite slurry was added to the samples and the suspension was incubated on ice and washed three times with HEGT buffer. The hydroxyapatite pellet was re-suspended in scintillation cocktail, and radioactivity was determined in a liquid scintillation counter. The specific binding of [^3H]-TCDD was determined by subtracting the radioactivity of non-specific reaction (TCDF) from total radioactivity. The values of IC50 were calculated where appropriate.

Structure (SMILES)	induction of CYP1A1 mRNA [1]	Affinity (IC50) [2]
Cc1c[nH]c2ccccc12 [3MI, skatole]	induced	low
O=Cc1c[nH]c2ccccc12 [IA, indole-3-aldehyde]		no
O=C(O)/C=C/c1c[nH]c2ccccc12 [IAC, indole-3-acrylate]	induced	very low
NC(=O)Cc1c[nH]c2ccccc12 [IAD, indole-3-acetamide]	induced	low
OCCc1c[nH]c2ccccc12 [IET, indole-3-ethanol]		very low
O=C(O)C(O)Cc1c[nH]c2ccccc12 (stereo not drawn) [ILA, indole-3-lactate]		no
c1ccc2[nH]ccc2c1 [IND, indole]	induced	very low
O=C(O)C(=O)Cc1c[nH]c2ccccc12 [IPY, indole-3-pyruvate]	induced	low
NCCc1c[nH]c2ccccc12 [TA, tryptamine]	lack of induction	no
